Data from US20070249555A1, “Use of Atp Analogues for Treatment of Cardiovascular Diseases” (INSTITUT NATIONAL DE LA SANTE ET DE LA RECHERCHE MEDICALE …, priority 2004, published 2007).

Tests used:
HepG2 cells = assay: TG-HDL2 internalization by HepG2 cells; format: cell-based, human; conditions: 10 min at 37° C.; for effect on the stimulation by ADP of the TG-HDL2 internalization: ADP 100 nM + A2P5P 100 μM or MRS2179 10 μM
Experimental: Cells were incubated for 10 minutes at 37° C. with 75 μg/ml^125I-TG-HDL2 without (control) or with apolipoprotein A-I 10 μg/ml (a), ADP 100 nM (b), AR-C69931MX 100 nM (c), ADP 100 nM+AR-C69931MX 100 nM (d), ADP 100 nM+[…] 100 μM (e), ADP 100 nM+MRS2179 10 μM (f). […] Internalization assays were performed as described in Guendouzi et al., (Biochemistry, 1998, 37: 14974-80) on HepG2 cells, obtained from the American Type Culture Collection ([…]). Cells were incubated for 10 minutes at 37° C. with 75 μg/ml of either ^125I-TG-HDL2, ^125I-HDL3 or ^125I-LDL. After washing and dissociation at 4° C. in phosphate buffered saline (PBS), cell radioactivity was determined using a Wallac 1261 multigamma apparatus. Prior experiments, cells were plated in polylysine-coated 24-multiwell plates (Falcon) at 4×10^4 cells per well. Cells were grown in Dulbecco's modified Eagles medium supplemented with 10% fetal calf serum, 100 units/ml penicillin, and 100 μg/ml streptomycin at 37° C. in a 5% CO2 and 95% air incubator. Medium was changed every 2 or 3 days, and the cells were subcultured every 7-8 days. Results are expressed as a percentage of internalization with respect to the control value (set at 0). Control corresponded to a basal value of internalization, amounting to 400 ng, 300 ng, 200 ng of TG-HDL2, HDL3 and LDL per mg of cells protein respectively for 10 minutes. Data as a mean ±SEM of at least 7, 5, 6 independent experiments, for TG-HDL2, HDL3 and LDL respectively.

human P2Y1 receptor = molecular target: T1, human P2Y1 receptor (Homo sapiens, UniProt P47900); assay: TG-HDL2 internalization by HepG2 cells after P2Y1 receptor silencing by siRNA; format: cell-based; conditions: HepG2, pool of 4 P2Y1 siRNAs 100 nM, 48 h; apoA-I 10 μg/ml, ADP 100 nM, AR-C69931MX 100 nM
T1 construct: host or cells: HepG2
Experimental: HepG2 cells were transiently transfected with siRNA designated to human P2Y1 receptor (columns d, e, f, g) or with non specific siRNA as control (a, b, c). 48 hours later, cells were incubated for 10 minutes at 37° C. with 75 μg/ml ^125I-TG HDL2 without (control) or with apolipoprotein A-I 10 μg/ml (a and d), ADP 100 nM (b and e), AR-C69931MX 100 nM (c and f), PBS (g). Data are expressed as a percentage of internalized radioactivity with respect to the control value (set as 0) (n>5); (*) p<0.05 (unpaired t-test).
(§1) Internalization assays were performed as described in Guendouzi et al., (Biochemistry, 1998, 37: 14974-80) on HepG2 cells, obtained from the American Type Culture Collection ([…]). Cells were incubated for 10 minutes at 37° C. with 75 μg/ml of either ^125I-TG-HDL2, ^125I-HDL3 or ^125I-LDL. After washing and dissociation at 4° C. in phosphate buffered saline (PBS), cell radioactivity was determined using a Wallac 1261 multigamma apparatus.
(§2) The silencing of the different P2Y receptors were carried-out using the siRNA technique. The siRNA sequenced targeting human P2Y13 receptor (Gene Bank GB/EMBL/DDBJ accession number AF295368) was from position 406 or 359 relative to the start codon. The siRNA duplex (21-nt-RNAs) in deprotected and desalted form, the siRNA targeting human P2Y1 receptor (a mix of 4 siRNAs, M-005689), and the non-specific control siRNA (D-001206-01) were purchased from Dharmacon Inc. Subconfluent HepG2 cells were transiently transfected with siRNAs (final concentration, 100 nM) using Oligofectamine™ according to the manufacturer's protocole (Invitrogen). Cells were usually assayed 48 hours after transfection. Specific silencing effect was confirmed by at least three independent experiments.
Results are expressed as a percentage of internalization with respect to the control value (set at 0). Control corresponded to a basal value of internalization, amounting to 400 ng, 300 ng, 200 ng of TG-HDL2, HDL3 and LDL per mg of cells protein respectively for 10 minutes. […]

human P2Y13 receptor = molecular target: T2, human P2Y13 receptor (Homo sapiens, UniProt Q9BPV8); assay: TG-HDL2 internalization by HepG2 cells after P2Y13 receptor silencing by siRNA; format: cell-based; conditions: HepG2, P2Y13 siRNA 100 nM, 48 h; apoA-I 10 μg/ml, ADP 100 nM, AR-C69931MX 100 nM
T2 construct: host or cells: HepG2
T2 sequence (Q9BPV8 1-354): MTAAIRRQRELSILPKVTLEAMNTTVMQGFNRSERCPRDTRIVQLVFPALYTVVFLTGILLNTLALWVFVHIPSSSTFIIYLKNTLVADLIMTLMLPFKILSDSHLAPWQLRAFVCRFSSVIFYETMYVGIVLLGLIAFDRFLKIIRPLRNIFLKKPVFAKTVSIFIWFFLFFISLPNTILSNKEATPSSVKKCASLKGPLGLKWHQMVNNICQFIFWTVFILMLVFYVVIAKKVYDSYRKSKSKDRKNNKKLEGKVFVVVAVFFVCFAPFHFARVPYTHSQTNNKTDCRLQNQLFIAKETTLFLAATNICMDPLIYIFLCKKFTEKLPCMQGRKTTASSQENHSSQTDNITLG
Experimental: Experiment was performed as in FIG. 2A with non-specific control siRNA (a, b, c) or with siRNA directed to human P2Y13 receptor (d, e, f, g) (n>7); (*) p<0.05 (unpaired t-test).
as §1, §2
Results are expressed as a percentage of internalization with respect to the control value (set at 0). Control corresponded to a basal value of internalization, amounting to 400 ng, 300 ng, 200 ng of TG-HDL2, HDL3 and LDL per mg of cells protein respectively for 10 minutes. Data as a mean ±SEM of at least 7, 5, 6 independent experiments, for TG-HDL2, HDL3 and LDL respectively.

T1 sequence (P47900 whole entry): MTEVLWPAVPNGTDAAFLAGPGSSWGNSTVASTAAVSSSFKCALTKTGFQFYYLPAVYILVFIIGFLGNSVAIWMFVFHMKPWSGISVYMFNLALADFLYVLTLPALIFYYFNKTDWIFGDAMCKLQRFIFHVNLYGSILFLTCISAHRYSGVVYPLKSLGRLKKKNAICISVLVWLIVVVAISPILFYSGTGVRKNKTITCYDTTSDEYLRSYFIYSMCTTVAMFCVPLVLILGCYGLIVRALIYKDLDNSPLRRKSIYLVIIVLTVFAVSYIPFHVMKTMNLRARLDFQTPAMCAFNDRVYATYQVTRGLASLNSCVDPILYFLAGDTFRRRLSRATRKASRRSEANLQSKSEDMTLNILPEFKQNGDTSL

Compound | effect on the stimulation by ADP of the TG-HDL2 internalization (HepG2 cells) | internalization of 125I-TG-HDL2 by HepG2 cells, increase above control cells (HepG2 cells; 75 μg/ml 125I-TG-HDL2, apoA-I 10 μg/ml, ADP 100 nM, AR-C69931MX 100 nM alone) | effect of P2Y1 receptors silencing on the stimulation of TG-HDL2 endocytosis (human P2Y1 receptor) | effect of P2Y13 receptor silencing on TG-HDL2 endocytosis after stimulation (human P2Y13 receptor)
Nc1ncnc2c1ncn2[C@@H]1O[C@H](COP(=O)(O)O)[C@@H](O)[C@H]1OP(=O)(O)O [A2P5P] | no effect |  |  | 
CNc1ncnc2c1ncn2[C@H]1C[C@H](OP(=O)(O)O)[C@@H](COP(=O)(O)O)O1 [MRS2179] | no effect |  |  | 
apoA-I: HDL apolipoprotein A-I; generates ADP through activation of the ectopic form of ATP synthase |  | 20% | no effect | dramatic inhibition
